Earlier results on 1 compound are cited in patent US10344064B2, “Engineered potent cytotoxic stapled BH3 peptides” (The Trustees of Princeton University, priority 2012, dated 2019).

Among the test systems are HeLa; PC3; MCF7; MDA231.
Conditions in all cases: cisplatin, values from reference 33-36; cited from earlier work

For `N.N.[Cl][Pt][Cl]` [Cisplatin, cisplatin], the half-maximal inhibitory concentration (IC50) was 1.34 µM in the data set with HeLa, 5.6 µM with PC3, 5 µM in the data set with MCF7 and around 10 µM with MDA231.

As usually defined, the IC50 is the point on the concentration scale where inhibition reaches its midpoint.
